Read-outs that look alike come from different tables or passages of the source.
Assays:
[1] = system: DA-3 murine mammary adenocarcinoma; experiment: Cytotoxicity assay (MTS, CellTiter 96) in DA-3 cells; conditions: for IC50: Mus musculus
Procedure: (§1) CT26 is a murine colon carcinoma. DA-3 is a murine mammary adenocarcinoma. TRAMP C1 is a murine prostate adenocarcinoma. MCF7 is a human breast adenocarcinoma. M IA PaCa-2 is a human pancreatic carcinoma. D122 is a murine lung carcinoma. BCL1 is a murine B cell leukemia. All cell lines were purchased from ATCC (Rockville, Md., USA), except for DA3 and D122 which were kindly provided by Prof. Y. Keisari (Tel-Aviv University, Israel).
(§2) The cells were maintained in a humidified atmosphere, at 37° C. with 5% CO2. CT26 and DA-3 cells were maintained in Dulbecco's modified Eagle's medium (Biological Industries, Beit-Haemek, Israel), supplemented with 10% FCS, 2 mM L-glutamine, 100 U ml^−1 penicillin, 100 μg ml^−1 streptomycin, 1 mM sodium pyruvate and 1:100 dilution of nonessential amino acids (all purchased from Biological Industries, Israel).
(§3) All cells (except for BCL1) were plated into 96-well microtiter plates (Corning) at a density of 2*10^3 cells per well and were allowed to adhere prior to treatment. BCL1 cells were seeded at a density of 20*10^4 cells per well. The cells were exposed to MJ, cytotoxic drugs, 2DG or their combinations at different concentrations for 24 hours. Cytotoxic drugs and 2DG were added 1 h prior to MJ addition.
(§4) Inhibition of cell proliferation was determined by the CellTiter 96 Aqueous Non-Radioactive Cell Proliferation Assay (Promega, Madison, Wis., USA). Upon completion of a given experiment, 20 μl of a mixture (20:1) of MTS (a tetrazolium compound, at a final concentration of 333 μg/ml)+phenazine methosulfate (at a final concentration of 25 μM) were added to each well of the 96-well plate for 1 h at 37° C. This allowed for the development of the reaction in which dehydrogenases reduce the MTS in metabolically active cells. […] Soluble MTS formazan product at wavelength 490 nm was measured with the CERES 900 HDi ELISA reader (Bio-Tek Instruments, Highland Park, Vt., USA). Optical density is directly proportional to the number of living cells in culture. Cytotoxicity (%) was calculated in the following way: [(absorbance of control cells−absorbance of drug-treated cells)/absorbance of control cells]×100.

[2] = system: MCF7 human breast adenocarcinoma; experiment: Cytotoxicity assay (MTS, CellTiter 96) in MCF7 cells; type: cell-based
Source text: as §1
(§5) MCF7, MIA PaCa-2 and BCL1 cells were maintained in RPMI-1640 medium (Biological Industries, Israel) supplemented with 10% FCS, 2 mM L-glutamine, 100 U ml^−1 penicillin and 100 μg ml^−1 streptomycin.
as §3, §4

[3] = system: D122 murine lung carcinoma; experiment: Cytotoxicity assay (MTS, CellTiter 96) in D122 cells; conditions: for IC50: Mus musculus
Procedure: as §1, §3, §4

[4] = system: CT26 murine colon carcinoma; experiment: Cytotoxicity assay (MTS, CellTiter 96) in CT26 cells; type: cell-based
Procedure: as §1
as §2, with “Israel). […]” for “Israel).”
Inhibition of cell proliferation was determined by the CellTiter 96 Aqueous Non-Radioactive Cell Proliferation Assay (Promega, Madison, Wis., USA). […] Soluble MTS formazan product at wavelength 490 nm was measured with the CERES 900 HDi ELISA reader (Bio-Tek Instruments, Highland Park, Vt., USA). […] Cytotoxicity (%) was calculated in the following way: [(absorbance of control cells−absorbance of drug-treated cells)/absorbance of control cells]×100.

[5] = system: BCL1 leukemia; experiment: Survival of BCL1 leukemia-bearing mice; type: in vivo, BALB/c mice; conditions: MJ 60 mg/kg i.v. or adriamycin 4 mg/kg i.p. alone
Procedure: Balb/c male mice (7-8 weeks old) were obtained from the breeding colony of Tel-Aviv University, Israel. Animal care and experimentation were carried out in accordance with Tel-Aviv University guidelines and approved by the institutional animal use and care committee. Mice were kept in cages under standard food and housing conditions during the experiments.
(§6) 2×10^4 BCL1 cells, freshly extracted from BCL1 leukemia bearing BALB/c mice, were inoculated intraperitoneally (i.p.) into mice in 100 μl PBS to produce tumor growth. Methyl jasmonate at 60 mg/kg was administered to animals 5 times a week, daily, for 4 weeks, starting one day after cell inoculation. […] MJ was dissolved in a lipid formulation, Lipofundin (B. Braun Melsungen, Melsungen, Germany). The adriamycin was given to mice twice, on days 7 and 14, at 4 mg/kg, i.p. Control mice were treated with the vehicle alone. The survival of mice was monitored daily.
Statistical significance in in vitro experiments was assessed using the two-tailed Student's t-test. P<0.05 was considered statistically significant. The survival curves (Kaplan-Meier test) and statistical analysis (Mantel-Cox test) were carried out using Statistical software.
Since adriamycin is used for treatment of leukemia, it was chosen for an experiment assessing a combination with MJ in vivo. […]

[6] = system: BCL1 murine B cell leukemia; experiment: Cytotoxicity assay (MTS, CellTiter 96) in freshly extracted BCL1 cells; conditions: for Interaction of MJ with drug (cytotoxicity vs expected additivity): BCL1; for Cooperative effect of combination of MJ and chemotherapeutic drug: BCL1 cells, drug combined with fixed concentration of MJ (0.1 mM), cooperative = pV<0.05 vs expected additivity; for IC50: Mus musculus
Source text: as §1, §5
BCL1 cells, which are unable to grow continuously in culture, were maintained in BALB/c mice. Blood was taken from the tail vein of BCL1-bearing mice on day 23-28 post inoculation, and depleted of red blood cells (RBC) using RBC lysis buffer (Sigma-Aldrich). The purified leukemic cells were used for in vitro and in vivo experiments.
as §3, §4

[7] = system: MIA PaCa-2 human pancreatic carcinoma; experiment: Cytotoxicity assay (MTS, CellTiter 96) in MIA PaCa-2 cells; conditions: for Cooperative effect of combination of MJ and chemotherapeutic drug: MIA PaCA-2 cells, drug combined with fixed concentration of MJ, cooperative = pV<0.05 vs expected additivity; for IC50: Homo sapiens
Source text: as §1, §5, §3, §4

[8] = system: TRAMP C1 murine prostate adenocarcinoma; experiment: Cytotoxicity assay (MTS, CellTiter 96) in TRAMP C1 cells; type: cell-based; conditions: for Cooperative effect of combination of MJ and chemotherapeutic drug / IC50: TRAMP C1 cells; for Cooperative effect of combination of MJ and chemotherapeutic drug: drug combined with fixed concentration of MJ, cooperative = pV<0.05 vs expected additivity; for IC50: Mus musculus
Procedure: as §1
TRAMP C1 cells were grown in Dulbecco's modified Eagle's medium supplemented with 10% FCS, 2 mM L-glutamine, 100 U ml^−1 penicillin, 100 μg ml^−1 streptomycin, 1 mM sodium pyruvate, 1:100 dilution of nonessential amino acids, 5 μg/ml bovine insulin and 10 nM dehydroisoandrosterone.
as §3, §4

[9] = mouse, in vivo
Procedure: as §6

[10] = drug at other concentrations + 0.1 mM MJ

O=CC[C@@H](O)[C@H](O)[C@H](O)CO [2DG, 2-Deoxy-D-glucose]
Effect of 2DG on cytotoxicity of MJ ([1]; DA-3, 2DG 0.5 mM with MJ): No cooperative effect | Effect of 2DG on cytotoxicity of MJ ([2]; MCF7, 2DG 0.5 mM, other MJ concentrations): additive | Effect of 2DG on cytotoxicity of MJ ([3]; D122, 2DG 0.5 mM, each MJ concentration, pV<0.05): significantly enhanced | Effect of 2DG on cytotoxicity of MJ ([4]; CT26, 2DG 0.5 mM, each MJ concentration, pV<0.05): significantly enhanced

COc1cccc2c1C(=O)c1c(O)c3c(c(O)c1C2=O)C[C@@](O)(C(=O)CO)C[C@@H]3O[C@H]1C[C@H](N)[C@H](O)[C@H](C)O1 [Adriamycin]
Survival of BCL1 leukemia-bearing mice, single agent [5]: did not induce increased survival | Interaction of MJ with drug (cytotoxicity vs expected additivity) ([6]; adriamycin 10 and 25 ng/ml + 0.1 mM MJ): cooperation | Interaction of MJ with drug (cytotoxicity vs expected additivity) [6, 10]: additive effect | Cooperative effect of combination of MJ and chemotherapeutic drug [6]: +

N.N.[Cl][Pt][Cl] [Cisplatin, cis Diammineplatinum (II) dichloride]
Cooperative effect of combination of MJ and chemotherapeutic drug [7]: + | Cooperative effect of combination of MJ and chemotherapeutic drug [8]: +

O=NN(CCCl)C(=O)NCCCl [BCNU, 1,3-bis{2-Chloroethyl}-1-nitroso-urea]
IC50 ([7]; MIA PaCa-2, read-out: IC50 of BCNU by itself): > 25 µg/mL | IC50 ([7]; MIA PaCa-2, read-out: IC50 of BCNU in the combination with MJ): < 1 µg/mL | Cooperative effect of combination of MJ and chemotherapeutic drug [7]: + | Interaction of MJ with drug (cytotoxicity vs expected additivity) ([7]; MIA PaCa-2, BCNU at all concentrations tested (1-25 μg/ml) + 1 mM MJ): strong cooperative effects | Interaction of MJ with drug (cytotoxicity vs expected additivity) ([6]; BCNU 2.5 and 5 μg/ml + 0.1 mM MJ, pV<0.05): cooperation | Interaction of MJ with drug (cytotoxicity vs expected additivity) [6, 10]: additive effect | Cooperative effect of combination of MJ and chemotherapeutic drug [6]: +

CC/C=C\CC1C(=O)CCC1CC(=O)OC (stereo not shown) [MJ, methyl 3-oxo-2-(2-pentenyl)cyclopentaneacetic acid]
IC50 ([7]; MIA PaCa-2, 24 h, read-out: IC50 of MJ): 1.46 ± 0.13 mM | IC50 ([1]; DA-3, 24 h, read-out: IC50 of MJ): 1.91 ± 0.08 mM | IC50 ([2]; Homo sapiens, MCF7 cells, 24 h exposure): 1.49 ± 0.06 mM | IC50 ([6]; BCL1, 24 h, read-out: IC50 of MJ): 0.56 ± 0.09 mM | IC50 ([6]; BCL1, read-out: IC50 of MJ): 0.56 mM | IC50 ([3]; 24 h, read-out: IC50 of MJ): 1.22 ± 0.06 mM | IC50 ([4]; Mus musculus, CT26 cells, 24 h exposure): 2.59 ± 0.12 mM | IC50 ([8]; 24 h exposure, read-out: IC50 of MJ): 2.94 ± 0.13 mM | Tolerability of MJ dose [9]: well tolerated

CC(=O)O[C@H]1C(=O)[C@@]2(C)[C@H]([C@H](OC(=O)c3ccccc3)[C@]3(O)C[C@H](OC(=O)[C@H](O)[C@@H](NC(=O)c4ccccc4)c4ccccc4)C(C)=C1C3(C)C)[C@]1(OC(C)=O)CO[C@@H]1C[C@@H]2O [Taxol]
Cooperative effect of combination of MJ and chemotherapeutic drug ([1]; DA-3 cells, drug combined with fixed concentration of MJ, cooperative = pV<0.05 vs expected additivity): + | IC50 ([1]; DA-3, read-out: IC50 of taxol alone): 9 µg/mL | IC50 ([1]; DA-3, read-out: IC50 of taxol in combination with MJ): 2.5 µg/mL | Interaction of MJ with drug (cytotoxicity vs expected additivity) ([2]; MCF7, taxol 2.5 μg/ml + 1 mM MJ): enhances the cytotoxic capability | Interaction of MJ with drug (cytotoxicity vs expected additivity) ([2]; MCF7, taxol at other concentrations + 1 mM MJ): additive | Cooperative effect of combination of MJ and chemotherapeutic drug ([2]; MCF7 cells, drug combined with fixed concentration of MJ, cooperative = pV<0.05 vs expected additivity): + | Interaction of MJ with drug (cytotoxicity vs expected additivity) ([6]; drug + 0.1 mM MJ): No cooperative effect | Cooperative effect of combination of MJ and chemotherapeutic drug ([3]; D122 cells, drug combined with fixed concentration of MJ, cooperative = pV<0.05 vs expected additivity): + | IC50 ([3]; read-out: IC50 of taxol alone): 8.2 µg/mL | IC50 ([3]; read-out: IC50 of taxol in the presence of MJ): < 1 µg/mL | IC50 ([8]; drug alone, read-out: IC 50 of taxol): 38 µg/mL | IC50 ([8]; with 1 mM MJ, read-out: IC 50 of taxol by combined treatment with MJ): 2 µg/mL | Combined effect of taxol with MJ vs expected additivity ([8]; TRAMP C1, taxol at all concentrations tested (1-50 μg/ml) + 1 mM MJ): significantly higher than the expected additivity | Cooperative effect of combination of MJ and chemotherapeutic drug [8]: +
